Experimental data as given in US7517874B2 (priority 2007, dated 2009).
pEC50: −log10 of the molar value. Read-outs that look alike come from different tables or passages of the source.

Key:
[1] = target: human CB1 receptor (hCB1) (Homo sapiens, UniProt P21554); assay: cell-based; assay type: cell-based; settings: for +/− HCB1: agonist or inverse agonist at hCB1; for EC50: groups >100 nM-10 μM and >10 μM, cAMP, CHO-K1 hCB1, read-out: EC50 HCB1
In short: (§1)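 Agonism or inverse agonism was assessed as change in intracellular cAMP in CHO-K1 cells expressing human CB1 or rat CB2 (genomic DNA, pcDNA3.1).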

[2] = target: T1, rat CB2 receptor (rCB2) (Rattus norvegicus, UniProt Q9QZN9); assay: cell-based; assay type: cell-based; settings: for +/− RCB2: agonist or inverse agonist at rCB2
T1 sequence (Q9QZN9 1-360): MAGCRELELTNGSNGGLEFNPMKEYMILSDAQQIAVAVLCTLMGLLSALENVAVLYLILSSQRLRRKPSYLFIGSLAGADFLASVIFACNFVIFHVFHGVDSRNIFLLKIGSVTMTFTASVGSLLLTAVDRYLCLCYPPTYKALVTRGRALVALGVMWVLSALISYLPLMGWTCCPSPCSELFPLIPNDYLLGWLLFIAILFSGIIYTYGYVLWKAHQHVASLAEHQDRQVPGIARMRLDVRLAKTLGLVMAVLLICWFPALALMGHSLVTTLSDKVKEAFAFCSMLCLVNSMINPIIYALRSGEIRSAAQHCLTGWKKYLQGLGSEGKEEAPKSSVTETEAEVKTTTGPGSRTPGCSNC
In short: as §1

Chain of human CB1 receptor (hCB1) (P21554 whole entry): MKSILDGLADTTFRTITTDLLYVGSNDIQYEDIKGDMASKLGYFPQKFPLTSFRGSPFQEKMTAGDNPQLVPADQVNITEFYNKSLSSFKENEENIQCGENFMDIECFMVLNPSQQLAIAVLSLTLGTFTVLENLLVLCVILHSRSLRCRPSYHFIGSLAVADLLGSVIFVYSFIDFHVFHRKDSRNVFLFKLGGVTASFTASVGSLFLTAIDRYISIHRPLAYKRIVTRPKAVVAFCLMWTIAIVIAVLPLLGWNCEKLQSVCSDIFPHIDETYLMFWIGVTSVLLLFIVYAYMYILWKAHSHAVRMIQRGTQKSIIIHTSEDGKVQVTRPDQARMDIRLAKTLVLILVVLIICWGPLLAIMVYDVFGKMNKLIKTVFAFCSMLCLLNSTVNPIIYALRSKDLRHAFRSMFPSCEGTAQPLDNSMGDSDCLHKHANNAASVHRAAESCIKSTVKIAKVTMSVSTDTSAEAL

Compound | +/− HCB1 [1] | +/− RCB2 [2] | pEC50 [1] | pEC50 [2] | EC50 [1]
CNC(=O)[C@H](CC(C)C)NC(=O)c1nc(C2=CCCC2)n2c1CN(C)CC2 [Compound 279, (S)-3-cyclopentenyl-7-methyl-N-(4-methyl-1-(methylamino)-1-oxopentan-2-yl)-5,6,7,8-tetrahydroimidazo[1,5-a]pyrazine-1-carboxamide] | + | + |  |  | 
CNC(=O)[C@H](CC(C)C)NC(=O)c1nc(C2=CCCCO2)n2c1CN(C)CC2 [Compound 280, (S)-3-(3,4-dihydro-2H-pyran-6-yl)-7-methyl-N-(4-methyl-1-(methylamino)-1-oxopentan-2-yl)-5,6,7,8-tetrahydroimidazo[1,5-a]pyrazine-1-carboxamide] |  | + | < 5.00 |  | 
CN1CCn2c(-c3ccccc3)nc(C(=O)N[C@H](C(=O)O)C(C)(C)C)c2C1 [Compound 281, (S)-3,3-dimethyl-2-(7-methyl-3-phenyl-5,6,7,8-tetrahydroimidazo[1,5-a]pyrazine-1-carboxamido)butanoic acid] |  | + | < 5.00 |  | 
Cc1noc([C@@H](NC(=O)c2nc(-c3ccccc3)n3c2CNCC3)C(C)(C)C)n1 [Compound 282, (S)-N-(2,2-dimethyl-1-(3-methyl-1,2,4-oxadiazol-5-yl)propyl)-3-phenyl-5,6,7,8-tetrahydroimidazo[1,5-a]pyrazine-1-carboxamide] |  |  | < 5.00 | < 5.00 | 
CN1CCn2c(-c3ccccc3)nc(C(=O)N[C@H](c3nc(C(C)(C)C)no3)C(C)(C)C)c2C1 [Compound 283, (S)-N-(1-(3-tert-butyl-1,2,4-oxadiazol-5-yl)-2,2-dimethylpropyl)-7-methyl-3-phenyl-5,6,7,8-tetrahydroimidazo[1,5-a]pyrazine-1-carboxamide] |  | − | < 5.00 |  | 
CC(C)(C)c1noc([C@@H](NC(=O)c2nc(-c3ccccc3)n3c2CN(C2CC2)CC3)C(C)(C)C)n1 [Compound 284, (S)-N-(1-(3-tert-butyl-1,2,4-oxadiazol-5-yl)-2,2-dimethylpropyl)-7-cyclopropyl-3-phenyl-5,6,7,8-tetrahydroimidazo[1,5-a]pyrazine-1-carboxamide] |  | − | < 5.00 |  | 
CN1CCn2c(-c3ccccc3)nc(C(=O)N[C@H](C(N)=O)C(C)(C)C)c2C1 [Compound 285, (S)-N-(1-amino-3,3-dimethyl-1-oxobutan-2-yl)-7-methyl-3-phenyl-5,6,7,8-tetrahydroimidazo[1,5-a]pyrazine-1-carboxamide] |  |  | < 5.00 | < 5.00 | 
CNC(=O)[C@@H](NC(=O)c1nc(/C=C/CN2CCOCC2)n2c1CN(C)CC2)C(C)(C)C [Compound 286, (S,E)-N-(3,3-dimethyl-1-(methylamino)-1-oxobutan-2-yl)-7-methyl-3-(3-morpholinoprop-1-enyl)-5,6,7,8-tetrahydroimidazo[1,5-a]pyrazine-1-carboxamide] |  | + | < 5.00 |  | 
CNC(=O)[C@@H](NC(=O)c1nc(/C=C/CN2CCCCC2)n2c1CN(C)CC2)C(C)(C)C [Compound 287, (S,E)-N-(3,3-dimethyl-1-(methylamino)-1-oxobutan-2-yl)-7-methyl-3-(3-(piperidin-1-yl)prop-1-enyl)-5,6,7,8-tetrahydroimidazo[1,5-a]pyrazine-1-carboxamide] |  | + | < 5.00 |  | 
CNC(=O)[C@@H](NC(=O)c1nc(/C=C/CN2CCCC2)n2c1CN(C)CC2)C(C)(C)C [Compound 288, (S,E)-N-(3,3-dimethyl-1-(methylamino)-1-oxobutan-2-yl)-7-methyl-3-(3-(pyrrolidin-1-yl)prop-1-enyl)-5,6,7,8-tetrahydroimidazo[1,5-a]pyrazine-1-carboxamide] |  | − | < 5.00 |  | 
CNC(=O)[C@@H](NC(=O)c1nc(C(=O)c2ccccc2)n2c1CN(C)CC2)C(C)(C)C [Compound 289, (S)-3-benzoyl-N-(3,3-dimethyl-1-(methylamino)-1-oxobutan-2-yl)-7-methyl-5,6,7,8-tetrahydroimidazo[1,5-a]pyrazine-1-carboxamide] |  | − | < 5.00 |  | 
CNC(=O)[C@@H](NC(=O)c1nc(C(=O)Nc2ccccc2)n2c1CN(C)CC2)C(C)(C)C [Compound 290, (S)-N1-(3,3-dimethyl-1-(methylamino)-1-oxobutan-2-yl)-7-methyl-N3-phenyl-5,6,7,8-tetrahydroimidazo[1,5-a]pyrazine-1,3-dicarboxamide] |  | − | < 5.00 |  | 
CC(C)(C)CC(=O)c1nc(-c2ccccc2)n2c1CNCC2 [Compound 291, 3,3-dimethyl-1-(3-phenyl-5,6,7,8-tetrahydroimidazo[1,5-a]pyrazin-1-yl)butan-1-one 2,2,2-trifluoroacetate] |  | − | < 5.00 |  | 
CN1CCn2c(-c3ccccc3)nc(C(=O)CC(C)(C)C)c2C1 [Compound 292, 3,3-dimethyl-1-(7-methyl-3-phenyl-5,6,7,8-tetrahydroimidazo[1,5-a]pyrazin-1-yl)butan-1-one] |  | − |  |  | > 10000 nM
CC(C)=CC(=O)c1nc(-c2ccccc2)n2c1CN(C)CC2 [Compound 293, 3-methyl-1-(7-methyl-3-phenyl-5,6,7,8-tetrahydroimidazo[1,5-a]pyrazin-1-yl)but-2-en-1-one] |  | − |  |  | > 10000 nM
CN1CCn2c(-c3ccccc3)nc(C(=O)CCCc3ccccc3)c2C1 [Compound 294, 1-(7-methyl-3-phenyl-5,6,7,8-tetrahydroimidazo[1,5-a]pyrazin-1-yl)-4-phenylbutan-1-one] |  | − |  |  | > 10000 nM
CNC(=O)[C@@H](NC(=O)c1nc(C(O)c2ccccc2)n2c1CN(C)CC2)C(C)(C)C (stereo partly drawn) [Compound 295, N-((S)-3,3-dimethyl-1-(methylamino)-1-oxobutan-2-yl)-3-(hydroxy(phenyl)methyl)-7-methyl-5,6,7,8-tetrahydroimidazo[1,5-a]pyrazine-1-carboxamide] |  |  | < 5.00 | < 5.00 | 
CNC(=O)[C@@H](NC(=O)c1nc(C(O)C2CC2)n2c1CN(C)CC2)C(C)(C)C (stereo partly drawn) [Compound 296, 3-(cyclopropyl(hydroxy)methyl)-N-((S)-3,3-dimethyl-1-(methylamino)-1-oxobutan-2-yl)-7-methyl-5,6,7,8-tetrahydroimidazo[1,5-a]pyrazine-1-carboxamide] |  | + | < 5.00 |  | 
CNC(=O)[C@@H](NC(=O)c1nc(-c2nccs2)n2c1CN(C)CC2)C(C)(C)C [Compound 297, (S)-N-(3,3-dimethyl-1-(methylamino)-1-oxobutan-2-yl)-7-methyl-3-(thiazol-2-yl)-5,6,7,8-tetrahydroimidazo[1,5-a]pyrazine-1-carboxamide] |  | + | < 5.00 |  | 
CNC(=O)[C@@H](NC(=O)c1nc(-c2ccccc2)n2c1CN(c1ncccn1)CC2)C(C)(C)C [Compound 298, N-(3,3-dimethyl-1-(methylamino)-1-oxobutan-2-yl)-3-phenyl-7-(pyrimidin-2-yl)-5,6,7,8-tetrahydroimidazo[1,5-a]pyrazine-1-carboxamide] | + | + |  |  | 
CNC(=O)[C@@H](NC(=O)c1nc(-c2ccccc2)n2c1CN(c1cccc(Cl)n1)CC2)C(C)(C)C [Compound 299, (S)-7-(6-chloropyridin-2-yl)-N-(3,3-dimethyl-1-(methylamino)-1-oxobutan-2-yl)-3-phenyl-5,6,7,8-tetrahydroimidazo[1,5-a]pyrazine-1-carboxamide] | + | − |  |  | 
